Source: ChEMBL document CHEMBL1201862, “PubChem BioAssay data set” (2004)
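Grown in 96-well plates, cells were treated for 48 hours with each compound at five concentrations. Insufficient inhibition: endpoint recorded as highest concentration tested. GI50: concentration for 50% inhibition of growth.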 Calls of active or inactive are those of the source. Rule as the data show it: active = GI50 up to about 1.1 µM and inactive = higher. Peptide text beside a SMILES is read from it. * marks the point of attachment. OSu = O=C1CCC(=O)N1O*

What was measured:
Assay in all cases: NCI anticancer screen, dose series, 48 h
T47D = test system: T47D
MDA-MB-231 = test system: MDA-MB-231
MDA-MB-435 = test system: MDA-MB-435
CCRF-CEM = test system: CCRF-CEM
HL-60 = test system: HL-60
786-0 = test system: 786-0
HCT-116 = test system: HCT-116
Hs-578T = test system: Hs-578T
DU-145 = test system: DU-145
NCI-H23 = test system: NCI-H23
EKVX = test system: EKVX
TK-10 = test system: TK-10
MDA-N = test system: MDA-N
UACC-62 = test system: UACC-62
RPMI-8226 = test system: RPMI-8226
M14 = test system: M14
A498 = test system: A498
HOP-62 = test system: HOP-62
HT-29 = test system: HT-29

SMILES	GI50 (T47D)	GI50 (MDA-MB-231)	GI50 (MDA-MB-435)	GI50 (CCRF-CEM)	GI50 (HL-60)	GI50 (786-0)	GI50 (HCT-116)	GI50 (Hs-578T)	GI50 (DU-145)	GI50 (NCI-H23)	GI50 (EKVX)	GI50 (TK-10)	GI50 (MDA-N)	GI50 (UACC-62)	GI50 (RPMI-8226)	GI50 (M14)	GI50 (A498)	GI50 (HOP-62)	GI50 (HT-29)
CN(C)CCCNC(=O)c1cc(NC(=O)c2cc(NC(=O)c3cc(NC(=O)CCCn4ccc(CO)c4CO)cn3C)cn2C)cn1C	6.85 µM (inactive)	27.7 µM (inactive)	11.1 µM (inactive)	3.73 µM (inactive)	3.1 µM (inactive)	4.2 µM (inactive)	3.86 µM (inactive)	22.1 µM (inactive)	3.94 µM (inactive)	13.8 µM (inactive)	72.4 µM (inactive)	24.8 µM (inactive)	16.5 µM (inactive)	3.48 µM (inactive)					
CCCCOc1c(C(=O)O)cc(Br)cc1C(=O)O	> 100 µM (inactive)	> 100 µM (inactive)	> 100 µM (inactive)			> 100 µM (inactive)	91.6 µM (inactive)			> 100 µM (inactive)	> 100 µM (inactive)	> 100 µM (inactive)	> 100 µM (inactive)		> 100 µM (inactive)	> 100 µM (inactive)	> 100 µM (inactive)	> 100 µM (inactive)	
CCOC(=O)N1C(=S)C(C(=O)OC)(C(=O)OC)N=C1C	> 100 µM (inactive)		> 100 µM (inactive)	> 100 µM (inactive)	> 100 µM (inactive)	> 100 µM (inactive)	> 100 µM (inactive)		> 100 µM (inactive)	> 100 µM (inactive)	> 100 µM (inactive)	> 100 µM (inactive)	> 100 µM (inactive)	> 100 µM (inactive)	> 100 µM (inactive)	> 100 µM (inactive)	> 100 µM (inactive)	> 100 µM (inactive)	
C=C1C(=O)O[C@@H]2[C@H]1CCC(C)=C1C=CC(=O)[C@]12C				3.15 µM (inactive)	3.3 µM (inactive)	> 10 µM (inactive)	12.2 µM (inactive)			> 10 µM (inactive)	17 µM (inactive)	23 µM (inactive)		10.3 µM (inactive)	6.67 µM (inactive)				10.9 µM (inactive)
CC(=O)OC12c3ccccc3-c3ccccc3C1C(C(=O)O)C2C(=O)O (stereo unspecified)	> 10 µM (inactive)	> 10 µM (inactive)	3.52 µM (inactive)	> 10 µM (inactive)	> 10 µM (inactive)	> 10 µM (inactive)		> 10 µM (inactive)	> 10 µM (inactive)	> 10 µM (inactive)	> 10 µM (inactive)	> 10 µM (inactive)			> 10 µM (inactive)	> 10 µM (inactive)	> 10 µM (inactive)	> 10 µM (inactive)	> 10 µM (inactive)
O=C(O)c1cc2ccccc2c(/N=N/c2ccc(S(=O)(=O)O)cc2)c1O	> 100 µM (inactive)	> 100 µM (inactive)	> 100 µM (inactive)	> 100 µM (inactive)	> 100 µM (inactive)	> 100 µM (inactive)	> 100 µM (inactive)	> 100 µM (inactive)	> 100 µM (inactive)		> 100 µM (inactive)	> 100 µM (inactive)	> 100 µM (inactive)	> 100 µM (inactive)	> 100 µM (inactive)	> 100 µM (inactive)		> 100 µM (inactive)	> 100 µM (inactive)
COC(=O)c1ccc(NC(=O)c2cc3c(cc2Br)OCO3)o1	90.6 µM (inactive)	> 100 µM (inactive)	32.7 µM (inactive)	> 100 µM (inactive)	> 100 µM (inactive)	> 100 µM (inactive)	> 100 µM (inactive)		> 100 µM (inactive)	> 100 µM (inactive)	> 100 µM (inactive)	> 100 µM (inactive)	42.5 µM (inactive)	> 100 µM (inactive)	> 100 µM (inactive)	> 100 µM (inactive)	> 100 µM (inactive)	> 100 µM (inactive)	> 100 µM (inactive)
NCCCCC(NC(=O)C(N)Cc1ccc(O)cc1)C(=O)NC(Cc1ccc(O)cc1)C(=O)NC(CCCCN)C(=O)ON1C(=O)CCC1=O (stereo unspecified) (H-YKYK-OSu; configuration not given here)	> 100 µM (inactive)	> 100 µM (inactive)			> 100 µM (inactive)	> 100 µM (inactive)	> 100 µM (inactive)	> 100 µM (inactive)		> 100 µM (inactive)	> 100 µM (inactive)	> 100 µM (inactive)	> 100 µM (inactive)	> 100 µM (inactive)	> 100 µM (inactive)	> 100 µM (inactive)	> 100 µM (inactive)	> 100 µM (inactive)	> 100 µM (inactive)
CC(=O)Oc1ccc2c(c1)Oc1cc(C(C)=O)ccc1C21OC(=O)c2ccccc21 (stereo unspecified)	> 100 µM (inactive)	> 100 µM (inactive)	88.3 µM (inactive)		44.6 µM (inactive)	> 100 µM (inactive)	> 100 µM (inactive)		> 100 µM (inactive)	> 100 µM (inactive)	> 100 µM (inactive)	> 100 µM (inactive)	> 100 µM (inactive)	> 100 µM (inactive)	30.2 µM (inactive)	> 100 µM (inactive)	> 100 µM (inactive)	64.6 µM (inactive)	> 100 µM (inactive)
C/C(=N\NC(=O)Nc1ccccc1Cl)c1ccc(O)cc1	> 100 µM (inactive)	> 100 µM (inactive)	> 100 µM (inactive)	> 100 µM (inactive)	> 100 µM (inactive)	> 100 µM (inactive)	48.6 µM (inactive)	> 100 µM (inactive)	> 100 µM (inactive)	> 100 µM (inactive)	> 100 µM (inactive)	> 100 µM (inactive)	> 100 µM (inactive)	> 100 µM (inactive)	> 100 µM (inactive)	> 100 µM (inactive)			> 100 µM (inactive)
O=[N+]([O-])c1ccc(-c2csc3nc(-c4ccccc4)nn23)cc1		44 µM (inactive)	> 100 µM (inactive)	> 100 µM (inactive)	> 100 µM (inactive)	98.2 µM (inactive)	> 100 µM (inactive)	> 100 µM (inactive)	> 100 µM (inactive)	> 100 µM (inactive)	> 100 µM (inactive)	> 100 µM (inactive)	> 100 µM (inactive)	> 100 µM (inactive)	> 100 µM (inactive)	> 100 µM (inactive)	> 100 µM (inactive)	43.9 µM (inactive)	> 100 µM (inactive)
CCCCCCCCCCCCCCCC(=O)OCCOCCOCCOCc1ccccc1						> 100 µM (inactive)	> 100 µM (inactive)			> 100 µM (inactive)	> 100 µM (inactive)	> 100 µM (inactive)		36.1 µM (inactive)			> 100 µM (inactive)	> 100 µM (inactive)	> 100 µM (inactive)
COc1cccc(CN(C(=O)/C=C\Sc2ccccc2)C(C)(C)C)c1	17.6 µM (inactive)	> 100 µM (inactive)	86.5 µM (inactive)	0.435 µM (active)	20.5 µM (inactive)	> 100 µM (inactive)	33 µM (inactive)		> 100 µM (inactive)	> 100 µM (inactive)	90.6 µM (inactive)	> 100 µM (inactive)	74 µM (inactive)	> 100 µM (inactive)		84.7 µM (inactive)	> 100 µM (inactive)	> 100 µM (inactive)	31.1 µM (inactive)
O=c1oc2ccc3ccccc3c2cc1-c1cn2c(n1)sc1ccccc12		> 100 µM (inactive)	> 100 µM (inactive)	> 100 µM (inactive)	> 100 µM (inactive)	> 100 µM (inactive)	> 100 µM (inactive)	> 100 µM (inactive)	> 100 µM (inactive)	> 100 µM (inactive)	90.8 µM (inactive)	> 100 µM (inactive)	> 100 µM (inactive)	92.7 µM (inactive)	> 100 µM (inactive)	> 100 µM (inactive)	> 100 µM (inactive)	> 100 µM (inactive)	> 100 µM (inactive)
O=C1/C(=C\c2cccc(Oc3ccccc3)c2)S(=O)(=O)C(c2ccccc2)N1c1ccccc1Cl (stereo unspecified)	16.3 µM (inactive)	28.2 µM (inactive)	27.7 µM (inactive)	19.1 µM (inactive)	13.9 µM (inactive)	29.3 µM (inactive)	15.4 µM (inactive)		36.1 µM (inactive)	24.4 µM (inactive)	22.3 µM (inactive)	77.1 µM (inactive)	21.2 µM (inactive)	25.2 µM (inactive)	16.3 µM (inactive)	28.6 µM (inactive)	45.6 µM (inactive)	26.4 µM (inactive)	22.6 µM (inactive)
C/C(=N/NC(=S)NCCc1ccccn1)c1cnccn1	6.05 µM (inactive)	26.2 µM (inactive)	53.3 µM (inactive)	2.64 µM (inactive)		14.6 µM (inactive)	23.2 µM (inactive)	78.5 µM (inactive)	17.8 µM (inactive)	38.6 µM (inactive)	10.9 µM (inactive)	17 µM (inactive)	53 µM (inactive)	18.3 µM (inactive)	13.3 µM (inactive)	24 µM (inactive)		31.2 µM (inactive)	3.78 µM (inactive)
CC(NC(=O)OC(C)(C)C)C(=O)NC1CCCC1 (stereo unspecified)			> 100 µM (inactive)	> 100 µM (inactive)	> 100 µM (inactive)	> 100 µM (inactive)	> 100 µM (inactive)	> 100 µM (inactive)	> 100 µM (inactive)	> 100 µM (inactive)	> 100 µM (inactive)	> 100 µM (inactive)	> 100 µM (inactive)		> 100 µM (inactive)	> 100 µM (inactive)	> 100 µM (inactive)		> 100 µM (inactive)
